Assay results taken from US5840696A (priority 1997, dated 1998).

Key:
[1] = test system: conscious Sprague-Dawley rats; experiment: intravenous infusion of nociceptin in conscious chronically instrumented rats: cardiovascular and renal responses; type: in vivo, rat; conditions: i.v. infusion 20 μg/kg/min
Description: Anesthetized male Sprague-Dawley rats (275-300 g, Sprague-Dawley, Inc., Indianapolis, Ind.) were implanted with chronic arterial and venous cannulas and a bladder catheter in accordance with previously published methods (10, 12). For experiments in which drugs were administered i.c.v., a stainless steel cannula was stereotaxically implanted into the right lateral ventricle of rats under anesthesia at least 5-7 days prior to experimentation (11). On the morning of the study rats were placed in a rat holder which permits forward and backward movement and allows for collection of urine from the bladder catheter. Conscious rats were then infused i.v. with isotonic saline (50 μl/min) for the duration of the experiment. The arterial cannulae was then flushed and attached to a pressure transducer (Statham P23Db) and the urinary bladder catheter led to a collection beaker. After equilibration and stabilization of urine flow rate and urinary sodium excretion (approximately 2-3 hours) the experimental protocol described in each figure legend commenced. Intravenous and i.c.v. stock solutions of nociceptin and nor-binaltorphimine were prepared fresh in isotonic saline vehicle. […] Animal experimentation and care procedures were in accordance with the National Institutes of Health guidelines for the care and use of animals.
Statistical significance was determined by a repeated measure analysis of variance followed by a Bonferroni multiple comparisons test; asterisks denote a significant difference (p<0.05) from the respective group control.

conscious rats = experiment: lower-dose i.v. infusion of nociceptin (50 and 166 nanog/Kg/min) in conscious rats, renal function; type: in vivo, rat
Excerpt: These marked increases in urine flow rate occurred at doses approximately 120 fold lower than previously reported by Kapusta et al. (17). In order to confirm these more recent and complete studies of the present invention, nociceptin was obtained from three commercially available sources, Phoenix Pharmaceutical, Bachem Chemical and Peninsula Laboratories. […] Nociceptin from each of the sources above was studied at a single infusion rate in each group of six rats. […] These increases in urine flow were accompanied by a decrease in the excretion of urinary sodium (UNA V) as reported earlier (17).

[2] = test system: isolated rat aortic vascular rings; experiment: vasorelaxant response of isolated rat aortic rings in vitro precontracted with U46619
Description: Aortic rings were precontracted with U46619, a thromboxane A2 mimic.
Rat aortic rings in vitro (with intact endothelium) were precontracted with […], a thromboxane A2 mimic.
Male rats (250-350g) were anesthetized with pentobarbital sodium (30 mg/Kg i.p). The rat lungs were quickly removed and immersed in cold (4° C.) Krebs-Henseleit (K-H) solution (composition mM: NaCl 118, KCl 4.7, CaCl2 2.5, KH2 PO4 1.2, NaHCO3 25, MgSO4 1.2, and dextrose 10). Pulmonary arteries (PA) were isolated and excess fat and connective tissue were removed. Vessels were cut into rings of about 2.5-3 mm in length and were mounted in organ baths containing 5 ml K-H solution. Two stainless steel hooks were inserted into the lumen of the pulmonary artery (PA), one was fixed while the other was connected to a transducer. The tissue bath solution was maintained at 37° C. and bubbled with a 95% O2 -5%CO2 mixture. The pulmonary arteries were equilibrated for 90 min with three changes of K-H solution and an optimal tension of 1 gr. applied. Contractions were measured isometrically with a force displacement transducer (FTO3, Grass, USA) and were recorded on a Grass model 7 polygraph. The contractile ability of each ring was then examined by exposure to 60 mM KCl, then washed and allowed to dilate to baseline tension. […] The integrity of the endothelium was determined by obtaining a maximal vasorelaxant response to ACh. […]

[3] = test system: conscious and pentobarbital-anesthetized rats; experiment: influence of pentobarbital anesthesia on renal and vascular effects of nociceptin; type: in vivo, rat
Excerpt: N=number of rats. *≤0.05 significant when compared using ANOVA.
N=number of animals. *≤0.05 when ANOVA used statistical comparison.

pulmonary vascular bed = pulmonary vascular bed of the intact-chest anesthetized rat under elevated pulmonary vasomotor tone; type: in vivo; conditions: intralobar arterial bolus injections
Description: Since pulmonary blood flow and left atrial pressure were held constant, the decreases in pulmonary artery pressure directly reflect decreases in pulmonary vascular resistance. N=number of animals.
Male Charles River rats (260-340 go) were anesthetized with an intraperitoneal injection of pentobarbital sodium (30 mg/kg), and allowed to breath air enriched with oxygen through an endotracheal tube inserted by tracheotomy. The anesthetized animals were strapped in a supine position to a fluoroscopic table, and catheters were inserted in femoral blood vessels. A specially designed triple lumen balloon perfusion catheter was constructed (Nu-Med, Hopkinton, N.Y.). This catheter is 145 mm in length, […]. and with specially curved tip to facilitate passage through the right heart and main pulmonary artery into the artery supplying the right lower lung lobe. At the distal tip of the catheter is a pressure port through which a 0.25 mm soft tip coronary artery angioplasty guide wire is inserted. […] Mean pressure in the right lower lobe artery and the aorta were continuously recorded. […] Since this catheter perfuses approximately one-sixth of the lung, as determined by measuring lung weight, this perfusion rate approximate physiologic flow for that lung area, i.e. at least 15-20% of the 75-85 ml/min normal total pulmonary blood flow of the rat. […]

[4] = i.v. infusion 50 and 166 nanog/Kg/min

In the case of `CC(C)C[C@H](NC(=O)[C@H](CCCCN)NC(=O)[C@H](CCCN=C(N)N)NC(=O)[C@H](C)NC(=O)[C@H](CO)NC(=O)[C@H](CCCCN)NC(=O)[C@H](CCCN=C(N)N)NC(=O)[C@H](C)NC(=O)CNC(=O)[C@@H](NC(=O)[C@H](Cc1ccccc1)NC(=O)CNC(=O)CNC(=O)[C@@H](N)Cc1ccccc1)[C@@H](C)O)C(=O)N[C@@H](C)C(=O)N[C@@H](CC(N)=O)C(=O)N[C@@H](CCC(N)=O)C(=O)O` [nociceptin], the “behavioral or sedative effects” value [1] is reported as “did not produce any behavioral or sedative effects”, the “duration of renal responses” value [1] is reported as “approximately 70 min” and the heart rate [1] is reported as “did not alter heart rate”. The “time of peak changes in renal responses after start of infusion” value [1] was “approximately 40 min”, the urinary sodium excretion ([1]; conscious rats) was “decrease” and the urine flow rate ([1]; conscious rats) was “profound increase”. The mean arterial pressure ([1]; sustained throughout infusion) was “slight, but statistically significant decrease”, the “doses producing increases in urine flow rate, lower than in preliminary studies / Kapusta et al. (17)” value (conscious rats; i.v. infusion) was “approximately 120 fold” and the “baseline systemic arterial pressure and heart rate” value (conscious rats; [4]) was “did not alter baseline systemic arterial pressure and heart rate”. The “duration of renal responses” value (conscious rats; [4]) was “approximately 90 min”, the “excretion of urinary sodium (UNA V)” value (conscious rats; [4]) was “decrease” and the “time of peak renal effect after start of infusion” value (conscious rats; [4]) was 30 min. The “urine flow rate (V)” value (conscious rats; i.v. infusion 50 and 166 nanog/Kg/min, conscious rats) was “dose-dependent increase”, the “aortic vasorelaxant response in the presence of inhibitors of nitric oxide formation and function” value ([2]; endothelial cell removal, methylene blue, L-NAME, L-NIO) was “blocked” and the “vasorelaxant response after cycloxygenase blockade” value ([2]; meclofenamate) was “lack of an inhibitory effect”. The “systemic vasodepressor activity, anesthetized versus conscious rats” value ([3]; bolus i.v. injection) was “greater systemic vasodepressor activity”, the “ability to increase urinary flow rate (V) under anesthesia” value ([3]; rats anesthetized with sodium pentobarbital, i.v. infusion) was “inhibited” and the “pulmonary vasodilator response after L-NAME and L-NIO” value (pulmonary vascular bed) was “inhibit”. For the same molecule, the “effect on the pulmonary vascular bed” value (pulmonary vascular bed; tone elevated with U46619) was “dilates the pulmonary vascular bed”.
